Measured values reported in patent US6211439A, “Herbicide resistance in plants” (MGI Pharma, Inc, priority 1995, dated 2001).
In brackets after ≈: the same amount, converted by molar mass. Read-outs that look alike come from different tables or passages of the source.

What was measured:
[1] = tested on: unselected maize callus tissue; assay: Callus culture growth inhibition, unselected tissue; type: cell-based; conditions: for IC50: Zea mays, 336 h
Procedure: (§1) Therefore the effects of 214 were determined on callus growth. Quantities of tissue averaging 90 mg in size were transferred to nutrient agar maintenance media containing concentrations of 214 ranging from 0.003 to 3 mg per liter. Eight tissue pieces were placed on each plate with three plates per herbicide concentration. After 14 days growth, the tissue was weighed again.

[2] = tested on: AHAS activity of line XA17 tissue; assay: AHAS activity assay, line XA17 tissue; type: biochemical, maize; conditions: for IC50: AHAS activity of line XA17 tissue, read-out: concentration inhibiting AHAS activity 50%; for change in herbicide sensitivity of AHAS, line XA17 vs control, on a concentration basis: maize
Procedure: (§2) Assays were conducted as a modification of the procedure of Smith et al. (1979, Molec. Gen. Genet. 169: 299-314). Plant cell culture material was ground with sand in a cold mortar and pestle in an equal quantity (w/v) of cell disruption media containing 0.05 M potassium phosphate (pH 7.0), 0.1 mM MgSO4, and 0.5 mM dithiothreitol. The preparation was centrifuged at 11,000×g for 20 minutes and the supernatant assayed for AHAS activity. Assays were conducted in 1 ml volumes containing 0.05 M potassium phosphate (pH 8.0), 40 mM pyruvate, 5 mM MgCl2, 0.1 mM thiamine pyrophosphate, 0.2 ml cell extract, and various concentrations of the herbicide of interest. The reaction mixtures were incubated at 30° C. for 75 minutes and the reaction terminated with the addition of 0.1 ml of 50% (v/v) H2 SO4. Following further incubation at 40° C. for 20 minutes, the acetoin formed from acetolactate by acidification was quantitated using the method of Westerfield (1945, J. Biol. Chem. 161: 495). To 0.2 ml of reaction mixture, 0.8 ml of water, 0.5 ml of 0.5% (w/v) creatine, and 0.5 ml of 5% (w/v) naphthol in 10% (w/v) NaOH was added. After mixing, solutions were incubated at room temperature for one hour. The development of pink color was quantitated by measuring light absorbance at 530 nm.
Assays were conducted to determine if acetohydroxyacid synthase extracted from line XA17 tissue was altered with respect to herbicide sensitivity. Such a change would signify that an alteration of this enzyme conferred the herbicide resistance. Assays were conducted as described supra.

[3] = tested on: maize cell suspension cultures; assay: Reversal of herbicide growth inhibition by leucine, valine and isoleucine; type: cell-based; parameters: key to Cell suspension culture growth, (+) 997: settled cell volume, ml per 10 ml of suspension
Procedure: (§3) Growth inhibition studies were carried out in 125 ml flasks containing 30 ml of test media. 997 was filter sterilized and added to cooling media following autoclaving. Test media were innoculated with cells to give a settled cell volume (15 minutes without centrifugation) of 0.2 ml per 10 ml of suspension. After either six or seven days growth settled cell volumes were again quantitated.
Cells were tested to determine whether the herbicide induced inhibition of growth was the result of the decreased availability of the three branched chain amino acids. Cells were exposed to toxic levels of 997 (1×10^-6 M) in media either supplemented with 1 mM concentrations of leucine, valine, and isoleucine or with no supplementation. Culture growth rates in the absence of amino acid supplementation and in the presence of 1×10^-6 M 997 were reduced to 16% that of herbicide free cultures.
Experiments were conducted to determine the optimum supplementation levels of each of the three amino acids to obtain maximum herbicide protection and for gaining insight into the site of action of the compound.

line XA17 tissue = assay: Callus growth inhibition, resistant line XA17; type: cell-based, maize; conditions: Zea mays, 336 h, read-out: level giving a 50% growth inhibition
Procedure: as §1
Initially, the maximum level of 214 in which line XA17 would grow stably was determined. Stock tissue which had been maintained in the presence of 0.1 mg per liter 214 was transferred to media containing 214 levels ranging up to 30 mg per liter. Tissue was maintained for several subculture intervals and the growth rate evaluated.

[4] = tested on: acetohydroxyacid synthase (AHAS); assay: AHAS activity assay, extract of maize cell cultures / control tissue; type: biochemical
Procedure: as §2, with “Plant” for “Assays were conducted as a modification of the procedure of Smith et al. (1979, Molec. Gen. Genet. 169: 299-314). Plant”, “Following further incubation at 40° C. for 20 minutes, the acetoin formed from acetolactate by acidification was quantitated using the method of Westerfield (1945, J. Biol. Chem. 161: 495).” left out, “hour.” for “hour. The development of pink color was quantitated by measuring light absorbance at 530 nm.”

[5] = tested on: Black Mexican Sweet Corn cell suspension cultures; assay: Growth inhibition of maize cell suspension cultures; type: cell-based
Procedure: Nonregenerable Black Mexican Sweet Corn cell suspension cultures (i.e., cell cultures which lack the ability to regenerate plants) were obtained from Dr. Burle Gengenbach, Department of Agronomy and Plant Genetics, University of Minnesota, St. Paul, Minn. Stock cell cultures were maintained in liquid Murashige and Skoog (MS) medium (Murashige and Skoog, 1962, Physiol. Plant 15: 473) containing 2 mg of 2,4-dichlorophenoxyaceticacid (2,4-D) per liter, and subcultured weekly by diluting to 1/10 the original volume with fresh medium. Cultures were grown in the dark at 26° C. in 500 ml flasks containing 125 ml media.
as §3
To determine whether the effects of 214 were reversible, Black Mexican Sweet Corn cells growing in liquid suspension culture were exposed to 0.03 mg per liter 214 for various periods of time up to 72 hours. […] The cells were then washed with herbicide-free media and the growth rate evaluated again in the absence of herbicide.

[6] = read-out: level giving a 50% growth inhibition
[7] = AHAS activity of control tissue, read-out: concentration inhibiting AHAS activity 50%

Structure (SMILES): CC(C)C1(C)NC(c2nc3ccccc3cc2C(=O)O)=NC1=O (stereo not shown) [compound 214, 2-(5-isopropyl-5-methyl-4-oxo-2-imidazolin-2-yl)3-quinolinecarboxylic acid]
- Cell death ([1]; 14 day period, 0.003 to 3 mg per liter): not observed to occur
- IC50 ([1]; read-out: concentration giving half maximal inhibition of callus growth rate): 0.1 to 0.3 µg/mL (≈ 0.321 to 0.964 µM)
- IC50 [1, 6]: 0.1 to 0.3 µg/mL (≈ 0.321 to 0.964 µM)
- IC50 [2]: 3000 to 30000 µM
- change in herbicide sensitivity of AHAS, line XA17 vs control, on a concentration basis [2]: ≥ 1000 fold
- effect of media supplementation with leucine, isoleucine, valine on growth inhibition ([3]; 1 mM each of leucine, isoleucine, and valine, cell suspension cultures): reversed the growth inhibitory effects
- IC50 (line XA17 tissue): 30 µg/mL (≈ 96.4 µM)
- effect on AHAS enzyme activity ([4]; AHAS activity from maize cell cultures): inhibited the enzyme activity
- IC50 [4, 7]: 1 to 10 µM
- Growth of cells in liquid suspension culture ([5]; 0.03 mg per liter 214, up to 72 hours): completely inhibited
- growth rate after washing with herbicide-free media ([5]; after exposure to 0.03 mg per liter 214 up to 72 hours): rapidly return to an uninhibited growth rate

Structure (SMILES): CC(C)C1(C)NC(c2ncccc2C(=O)O)=NC1=O (stereo not shown) [compound 997, 2-(5-isopropyl-5-methyl-4-oxo-2-imidazolin-2-yl)nicotinic acid]
- IC50 [1, 6]: 0.1 to 0.3 µg/mL (≈ 0.383 to 1.15 µM)
- IC50 [2]: 3000 to 30000 µM
- change in herbicide sensitivity of AHAS, line XA17 vs control, on a concentration basis [2]: ≥ 1000 fold
- Cell suspension culture growth, (+) 997 ([3]; 0.3 ile): .33
- Cell suspension culture growth, (+) 997 ([3]; 0.3 leu): .29
- Cell suspension culture growth, (+) 997 ([3]; 0.3 val): .48
- Culture growth rate relative to control cultures ([3]; 1×10^-6 M 997, media supplemented with 1 mM leucine, valine, and isoleucine): 91%
- effect of media supplementation with leucine, valine, isoleucine on growth inhibition ([3]; 997 ranging in concentration from 1×10^-8 to 1×10^-3 M): could reverse the growth inhibitory effects
- Cell suspension culture growth, (+) 997 ([3]; Leucine, Valine, Isoleucine 1,1,1): 1.88
- Cell suspension culture growth, (+) 997 ([3]; Leucine, Valine, Isoleucine 1,1,.1): .93
- Cell suspension culture growth, (+) 997 ([3]; Leucine, Valine, Isoleucine 1,1,.3): 1.55
- Cell suspension culture growth, (+) 997 ([3]; Leucine, Valine, Isoleucine 1,.1,1): 1.28
- Cell suspension culture growth, (+) 997 ([3]; Leucine, Valine, Isoleucine 1,.1,.1): 1.03
- Cell suspension culture growth, (+) 997 ([3]; Leucine, Valine, Isoleucine 1,.1,.3): 1.38
- Cell suspension culture growth, (+) 997 ([3]; Leucine, Valine, Isoleucine 1,.3,1): 1.45
- Cell suspension culture growth, (+) 997 ([3]; Leucine, Valine, Isoleucine 1,.3,.1): .98
- Cell suspension culture growth, (+) 997 ([3]; Leucine, Valine, Isoleucine 1,.3,.3): 1.40
- Cell suspension culture growth, (+) 997 ([3]; Leucine, Valine, Isoleucine .1,1,1): .60
- Cell suspension culture growth, (+) 997 ([3]; Leucine, Valine, Isoleucine .1,1,.1): .83
- Cell suspension culture growth, (+) 997 ([3]; Leucine, Valine, Isoleucine .1,1,.3): .68
- Cell suspension culture growth, (+) 997 ([3]; Leucine, Valine, Isoleucine .1,.1,1): .58
- Cell suspension culture growth, (+) 997 ([3]; Leucine, Valine, Isoleucine .1,.1,.1): .70
- Cell suspension culture growth, (+) 997 ([3]; Leucine, Valine, Isoleucine .1,.1,.3): .68
- Cell suspension culture growth, (+) 997 ([3]; Leucine, Valine, Isoleucine .1,.3,1): .80
- Cell suspension culture growth, (+) 997 ([3]; Leucine, Valine, Isoleucine .1,.3,.1): .75
- Cell suspension culture growth, (+) 997 ([3]; Leucine, Valine, Isoleucine .1,.3,.3): .90
- Cell suspension culture growth, (+) 997 ([3]; Leucine, Valine, Isoleucine .3,1,1): 1.30
- Cell suspension culture growth, (+) 997 ([3]; Leucine, Valine, Isoleucine .3,1,.1): 1.08
- Cell suspension culture growth, (+) 997 ([3]; Leucine, Valine, Isoleucine .3,1,.3): 1.30
- Cell suspension culture growth, (+) 997 ([3]; Leucine, Valine, Isoleucine .3,.1,1): .80
- Cell suspension culture growth, (+) 997 ([3]; Leucine, Valine, Isoleucine .3,.1,.1): .70
- Cell suspension culture growth, (+) 997 ([3]; Leucine, Valine, Isoleucine .3,.1,.3): .95
- Cell suspension culture growth, (+) 997 ([3]; Leucine, Valine, Isoleucine .3,.3,1): 1.08
- Cell suspension culture growth, (+) 997 ([3]; Leucine, Valine, Isoleucine .3,.3,.1): .95
- Cell suspension culture growth, (+) 997 ([3]; Leucine, Valine, Isoleucine .3,.3,.3): 1.18
- Cell suspension culture growth, (+) 997 ([3]; No Supplementation (4 replicates)): 0.30
- activity at 1 µM ([3]; Zea mays, 1×10^-6 M 997, absence of amino acid supplementation, read-out: Culture growth rate relative to herbicide free cultures): 16%
- IC50 (line XA17 tissue): > 30 µg/mL
- IC50 ([4]; AHAS activity from maize cell cultures, read-out: concentration reducing AHAS enzyme activity 50%): 8 µM
- IC50 [4, 7]: 1 to 10 µM
- herbicide concentration giving 50% growth inhibition ([5]; suspension cultures, concentration in the media, settled cell volume after six or seven days): 1 to 3×10^-8 M
